The text below walks through data of the OPERA property sets (Mansouri et al. 2018).

As a reminder, the logP is the decadic logarithm of the partition coefficient of the neutral form, usually between octanol and water. Higher therefore signals a more lipophilic compound. What is called solubility is the concentration that dissolves in the medium under given conditions. A low value points to a poorly soluble substance.

≈ marks a conversion by molar mass, not a printed value.

Conditions in the first series: not given
`CCN=c1nc(Cl)[nH]c(=NC(C)CC)[nH]1` (stereo not given) came in with a log partition coefficient (logP) of 2.61.

Consider `C[C@H](CCC(=O)O)[C@H]1CC[C@H]2[C@@H]3CC[C@@H]4C[C@H](O)CC[C@]4(C)[C@H]3C[C@H](O)[C@]12C`, for which the logP amounted to 3.5.

Compound `N#Cc1cc(I)c(O)c(I)c1` displayed a logP of 3.43.

`CSc1nc(N)nc(C(Cl)(Cl)Cl)n1` yielded a lipophilicity (logP) of 3.12.

As to `Cc1ncc(CO)c(C=O)c1O`, the solubility is 2990 mM (≈ 500 mg/mL).

As to `CCCNC(=O)CCC(NS(=O)(=O)c1ccccc1)C(=O)O` (stereo not given), the log partition coefficient (logP) amounted to 0.01.

Compound `CCOC(=O)CCn1nnc2ccccc21` showed a log partition coefficient (logP) of 1.6.

`NC(=O)N=NC(N)=O` displayed a log partition coefficient (logP) of -1.7.

Turning to `CC(C)=CC1C(C(=O)OCc2coc(Cc3ccccc3)c2)C1(C)C` (stereo not given), the logP was determined as 6.14.

Regarding `Cc1ccc2oc(-c3ccccc3C(=O)O)c(Br)c2c1`, the lipophilicity (logP) is 5.19.

In turn, `Cn1cnc2c(N)ncnc21` had a log partition coefficient (logP) of -0.03.

As for `Nc1ncnc2c1nc(Sc1ccc(Cl)cc1)n2C1OC2COP(=O)(O)OC2C1O` (stereo not given), the log partition coefficient (logP) was -0.98.

`O=C(OCCOCCOCCO)c1ccccc1` registered a log partition coefficient (logP) of 1.09.

For `Oc1cccc(N=C=S)c1`, the logP was determined as 3.23.

Compound `Cc1cc(Cl)ccc1OCC(=O)O` registered a logP of 3.25.

The compound `COc1cccc(N=C=S)c1` yielded a logP of 3.68.

As for `Cc1cccc(C(C)C)c1`, the solubility came out at 0.317 mM (≈ 0.0425 mg/mL).

The compound `CCCCC(OC(Cc1ccccc1)C(=O)N1CCC(OCOC)CC1)C(=O)NC(CC1CCCCC1)C(O)CC(C(=O)NCCNc1noc(N)n1)C(C)C` (stereo not given) showed a logP of 4.5.

The same series, now with this note: 20 °C.
On to `CCOP(=S)(OCC)Oc1nc(Cl)n(C(C)C)n1`, for which the solubility was found to be 0.324 mM (≈ 0.102 mg/mL).

In the case of `CCC#CC(C)O` (stereo not given), the solubility was 387 mM (≈ 38 mg/mL).

As for `C=CCN(CC=C)c1c(C)cc(OC(=O)NC)cc1C`, the solubility was 0.255 mM (≈ 0.07 mg/mL).

Compound `CC(C)OC(=O)c1ccccc1C(=O)OC(C)C` displayed a solubility of 1.33 mM (≈ 0.332 mg/mL).

In turn, `C=CC(=O)NCO` came in with a solubility of 6460 mM (≈ 653 mg/mL).

`COc1c(Cl)cc(Cl)cc1Cl` registered a solubility of 0.0473 mM (≈ 0.01 mg/mL).

As to `COP(=S)(OC)Oc1nc(Cl)c(Cl)cc1Cl`, the solubility was found to be 0.0148 mM (≈ 0.00476 mg/mL).

The compound `CCCC(CCC)C(=O)O` registered a solubility of 13.9 mM (≈ 2 mg/mL).

`Clc1cccc2c1Oc1c(Cl)c(Cl)c(Cl)c(Cl)c1O2`: the solubility was 3.37e-07 mM (≈ 1.2e-07 mg/mL).

With `COCCO[Si](CCCl)(OCCOC)OCCOC`, the solubility stood at 78.9 mM (≈ 25 mg/mL).

The series is the same for the next values; noted with them: 22.0 °C.
For `Cc1ccc(C(C)C)cc1`, the log10 OH rate constant (cm³/molecule/s) is -10.8.

The series is the same for the next values; noted with them: 23.0 °C.
In the case of `CCC(C)OCOC(C)CC` (stereo not given), the log10 OH rate constant (cm³/molecule/s) was -10.4.

With `CC(=O)C(C)O` (stereo not given), the log10 OH rate constant (cm³/molecule/s) is -11.

`CC/C=C\CCO` displayed a log10 OH rate constant (cm³/molecule/s) of -9.96.

Staying with this series, now noted: 25 °C.
Take `Clc1cccc(Cl)c1Cl`: the solubility was 0.0992 mM (≈ 0.018 mg/mL).

Compound `O=C(O)c1ccc[n+]([O-])c1` registered a solubility of 50.3 mM (≈ 7 mg/mL).

As for `Cc1ccc(C(C)C)cc1`, the solubility was 0.174 mM (≈ 0.0234 mg/mL).

For the compound `COc1ccc(C(c2ccc(OC)cc2)C(Cl)(Cl)Cl)cc1`, the solubility was found to be 0.000289 mM (≈ 0.0001 mg/mL).

The compound `NS(=O)(=O)c1cc2c(s1)SCCC2=O` yielded a solubility of 0.281 mM (≈ 0.07 mg/mL).

On to `c1ccc2c(c1)cc1ccc3cccc4ccc2c1c34`, for which the solubility is 6.42e-06 mM (≈ 1.62e-06 mg/mL).

In turn, `Oc1nc(O)nc(O)n1` returned a solubility of 15.5 mM (≈ 2 mg/mL).

In the case of `NC(N)=O`, the solubility was found to be 9070 mM (≈ 545 mg/mL).

`Nc1cc(Cl)cc(C(=O)O)c1Cl` displayed a solubility of 3.4 mM (≈ 0.7 mg/mL).

With `OCCCc1ccccc1`, the solubility came to 41.7 mM (≈ 5.68 mg/mL).

`Oc1cc(Cl)cc(Cl)c1`: the solubility came out at 27.6 mM (≈ 4.5 mg/mL).

On to `CC1CO1` (stereo not given), for which the solubility worked out at 10200 mM (≈ 590 mg/mL).

The compound `c1ccc(OCC2CO2)cc1` (stereo not given) gave a solubility of 16 mM (≈ 2.4 mg/mL).

As for `O=C(O)CBr`, the solubility was 12600 mM (≈ 1750 mg/mL).

In the case of `CCCCC(=O)O[C@]1(C(=O)CO)[C@@H](C)C[C@H]2[C@@H]3CCC4=CC(=O)C=C[C@]4(C)[C@@]3(F)[C@@H](O)C[C@@]21C`, the solubility was 0.0195 mM (≈ 0.00929 mg/mL).

`CCCCC(CC)COP(=O)(Oc1ccccc1)Oc1ccccc1` (stereo not given) returned a solubility of 0.00524 mM (≈ 0.0019 mg/mL).

`Cc1ccc2c(c1N)C(=O)c1ccccc1C2=O`: the solubility was determined as 0.0014 mM (≈ 0.000332 mg/mL).

Consider `CNC1(c2ccccc2Cl)CCCCC1=O.Cl` (stereo not given), for which the solubility was 729 mM.

As for `CCCCCCCCCCCCCCCCCCCC`, the solubility worked out at 6.72e-06 mM (≈ 1.9e-06 mg/mL).

Staying with this series, now noted: 25.0 °C.
In turn, `BrCBr` returned a log10 OH rate constant (cm³/molecule/s) of -12.9.

Compound `CCCCOCOCCCC` had a log10 OH rate constant (cm³/molecule/s) of -10.5.

On to `FC(F)C(F)F`, for which the log10 OH rate constant (cm³/molecule/s) is -14.2.

Regarding `CCCC(=O)O`, the log10 OH rate constant (cm³/molecule/s) was -11.6.

The compound `c1cc2c3c(cccc3c1)CC2` showed a log10 OH rate constant (cm³/molecule/s) of -10.2.

As for `COC(=O)CCCC(=O)OC`, the log10 OH rate constant (cm³/molecule/s) was -11.5.

The same series, now with this note: 27 °C.
In the case of `NCCc1c[nH]c2ccc(O)cc12`, the solubility is 114 mM (≈ 20 mg/mL).

`Cc1c2ccccc2cc2ccc3ccccc3c12` had a solubility of 0.000272 mM (≈ 6.6e-05 mg/mL).

Still in this series, the particulars now being: 27.0 °C.
Take `Cc1ccc(C=O)o1`: the log10 OH rate constant (cm³/molecule/s) was -10.3.

The compound `O=Cc1ccco1` displayed a log10 OH rate constant (cm³/molecule/s) of -10.5.

Still in this series, the particulars now being: 30 °C.
For `BrCBr`, the solubility was found to be 68.5 mM (≈ 11.9 mg/mL).

The compound `Ic1ccccc1` had a solubility of 1.67 mM (≈ 0.34 mg/mL).

Compound `CCOC(=O)CCl` came in with a solubility of 158 mM (≈ 19.4 mg/mL).

As to `COc1ccccc1[N+](=O)[O-]`, the solubility worked out at 11 mM (≈ 1.69 mg/mL).
